Here are results for one substance from patent US7297551B2, “Recombinant proteins and peptides for endotoxin biosensors, endotoxin removal, and anti-microbial and anti-endotoxin therapeutics” (priority 1998, dated 2007).

Assay [1] concerns the target T1, rFCEE (truncated C. rotundicauda Factor C, CrFC21EE, amino acids 1-766, from P. pastoris) (Carcinoscorpius rotundicauda, UniProt Q26422).
T1 construct: Pichia pastoris, Biomax-50 enriched
T1 sequence (Q26422 1-766): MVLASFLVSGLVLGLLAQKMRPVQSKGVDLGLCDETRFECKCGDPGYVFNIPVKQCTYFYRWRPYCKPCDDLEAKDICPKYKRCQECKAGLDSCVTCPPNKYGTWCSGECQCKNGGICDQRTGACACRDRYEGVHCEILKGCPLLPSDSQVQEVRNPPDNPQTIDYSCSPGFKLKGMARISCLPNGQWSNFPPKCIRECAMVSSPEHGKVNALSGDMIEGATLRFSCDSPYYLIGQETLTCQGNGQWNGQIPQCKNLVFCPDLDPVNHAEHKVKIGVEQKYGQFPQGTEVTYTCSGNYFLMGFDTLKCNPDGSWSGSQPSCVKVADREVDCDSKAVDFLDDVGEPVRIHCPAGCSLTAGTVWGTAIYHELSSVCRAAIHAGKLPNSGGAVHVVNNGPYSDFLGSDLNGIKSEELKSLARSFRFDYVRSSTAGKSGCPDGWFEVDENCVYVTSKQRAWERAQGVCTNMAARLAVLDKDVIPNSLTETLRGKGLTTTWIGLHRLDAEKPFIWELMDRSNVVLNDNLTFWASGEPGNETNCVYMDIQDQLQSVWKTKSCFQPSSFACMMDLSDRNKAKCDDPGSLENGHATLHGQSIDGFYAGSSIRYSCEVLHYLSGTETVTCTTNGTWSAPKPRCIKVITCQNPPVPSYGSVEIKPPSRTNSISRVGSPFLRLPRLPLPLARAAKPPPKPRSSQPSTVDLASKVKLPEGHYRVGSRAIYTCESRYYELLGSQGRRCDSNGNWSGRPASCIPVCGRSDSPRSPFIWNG
In words: Modified Western blot of LPS/lipid A. Format: binding. Conditions: compared with rFC. The protocol: LPS from E. coli 055:B5 (Sigma) was reconstituted to 2 μg/μl, and diphosphoryl lipid A from E. coli K12, D31m4 LPS (List Biologicals, Inc., USA) was made up to 1 μg/μl. The LPS-binding assay was based on modifications of earlier described protocols (45,61). Briefly, 10 μg aliquots of LPS/lipid A were electrophoresed on a denaturing 15% SDS-polyacrylamide gel and electroblotted onto Immobilon™ PVDF membrane. The membrane was cut into strips and each LPS/lipid A strip was subsequently incubated with 300 μg of proteins containing rFC. Detection of rFC binding to lipid A was accomplished by incubation with anti-Factor C antibody followed by alkaline phosphatase-conjugated secondary goat anti-rabbit antibody (Dako) and BCIP/NBT colorimetric substrate (Moss, Inc., USA).
(A western blot detects proteins with antibodies after separation by electrophoresis.)

Assay [2] has as its target NH-LBP (aa 1-197). Conditions: Han et al., 1994; ligand cell empty; read-out: Equilibrium constant; cited from earlier work.

lipid A: in assay [1], the “binding to lipid A moiety of LPS” value is listed as “less strongly”. In addition, the Kd in assay [2] was 51 nM.
